From US20260274814A1, “THIENYL COMPOUNDS FOR THE TREATMENT OF A CENTRAL NERVOUS SYSTEM DISEASE OR DISORDER” (Coreterra Therapeutics, Inc., priority 2023, published 2026)
Structures can show the parent of a compound that is named as a salt.

Tested on: mice
Assay: Neuropharmacological Assay (SmartCube): automated behavioral signature of compound-treated mice compared with a database of reference drug classes
Type: in vivo
Settings: for AD / AG / AN / CE / HL / MS / PS / SH / AP / AX / UK: SmartCube class probability, 3.0 mg/kg i.p., 15 min before test; for MED / minimal effective dose: minimal effective dose: dose having 45% or more total activity in SmartCube, i.p., if only one dose tested, that dose is shown; for minimal effective dose: Mus musculus, ip, read-out: MED
How it was run: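 Probabilities of matching each neuropharmacological class (e.g. anxiolytic, antidepressant) come from algorithmic analysis of digitally recorded behaviour, reported for 3.0 mg/kg. Compounds were given intraperitoneally in a Pharmasolve/PEG/propylene glycol vehicle 15 min pre-test. Minimal effective dose is the lowest dose reaching 45% or more total activity.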

Compound | AD | AG | AN | CE | HL | MS | PS | SH | UK (hydrochloride, 3 mg/kg) | MED | minimal effective dose | AX | AP | further results
CNC1CCc2scc(C3CC3)c2C1 (single isomer, unassigned) [Compound 250, 3-cyclopropyl-N-methyl-4,5,6,7-tetrahydrobenzothiophen-5-amine hydrochloride] | ND (^ <4%) | ND (^ <4%) | ND (^ <4%) | ND (^ <4%) | ND (^ <4%) | ND (^ <4%) | ND (^ <4%) | ND (^ <4%) | ND (^ <4%) | 3 mpk |  |  |  | AP (hydrochloride, 3 mg/kg): + (≥4%); AX (hydrochloride, 3 mg/kg): ++++ (≥74%)
CCc1csc2c1CC(NC)CC2 (single isomer, unassigned) [Compound 251, 3-ethyl-N-methyl-4,5,6,7-tetrahydrobenzothiophen-5-amine hydrochloride] | ND (^ <4%) | ND (^ <4%) | ND (^ <4%) |  | ND (^ <4%) | ND (^ <4%) |  | ND (^ <4%) | ++ (≥24%) |  | > 3 mg/kg | ND (^ <4%) |  | AP (hydrochloride, 3 mg/kg): ND (^ <4%)
CCc1csc2c1CC(NC)CC2 (single isomer, unassigned) [Compound 252, 3-ethyl-N-methyl-4,5,6,7-tetrahydrobenzothiophen-5-amine hydrochloride] | ND (^ <4%) | ND (^ <4%) | ND (^ <4%) |  | ND (^ <4%) | ND (^ <4%) |  | ND (^ <4%) | +++ (≥49%) |  |  | ND (^ <4%) |  | AP (hydrochloride, 3 mg/kg): + (≥4%); CE (hydrochloride, 3 mg/kg): ND (^ <4%); PS (hydrochloride, 3 mg/kg): ND (^ <4%); MED (hydrochloride): 3 mpk
NC1CCc2scc(C(F)(F)F)c2C1 (single isomer, unassigned) [Compound 254, 3-(trifluoromethyl)-4,5,6,7-tetrahydrobenzothiophen-5-amine hydrochloride] | ND (^ <4%) | ND (^ <4%) | ND (^ <4%) | ND (^ <4%) | ND (^ <4%) | ND (^ <4%) | ND (^ <4%) | ND (^ <4%) | + (≥4%) |  | > 3 mg/kg | ND (^ <4%) | ND (^ <4%) | 
NC1CCc2scc(C(F)(F)F)c2C1 (single isomer, unassigned) [Compound 255, 3-(trifluoromethyl)-4,5,6,7-tetrahydrobenzothiophen-5-amine hydrochloride] | ND (^ <4%) | ND (^ <4%) | ND (^ <4%) | ND (^ <4%) | ND (^ <4%) | ND (^ <4%) | ND (^ <4%) | ND (^ <4%) | ND (^ <4%) | >3 mpk |  | ND (^ <4%) | ND (^ <4%) | 
CNC1CCc2sc(-c3ccccc3)cc2C1.Cl (single isomer, unassigned) [Compound 256, N-methyl-2-phenyl-4,5,6,7-tetrahydrobenzothiophen-5-amine hydrochloride] | ND (^ <4%) | ND (^ <4%) | ND (^ <4%) | ND (^ <4%) | ND (^ <4%) | ND (^ <4%) | ND (^ <4%) | ND (^ <4%) | + (≥4%) |  | > 3 mg/kg | ND (^ <4%) | ND (^ <4%) | 
CNC1CCc2sc(-c3ccccc3)cc2C1.Cl (single isomer, unassigned) [Compound 257, N-methyl-2-phenyl-4,5,6,7-tetrahydrobenzothiophen-5-amine hydrochloride] | ND (^ <4%) | ND (^ <4%) | ND (^ <4%) | ND (^ <4%) | ND (^ <4%) | ND (^ <4%) | ND (^ <4%) | ND (^ <4%) | ++ (≥24%) | >3 mpk |  | ND (^ <4%) | ND (^ <4%) | 
CNC1COc2csc(C(F)(F)F)c2C1 (single isomer, unassigned) [Compound 258, N-methyl-5-(trifluoromethyl)-3,4-dihydro-2H-thieno[3,4-b]pyran-3-amine hydrochloride] | ND (^ <4%) | ND (^ <4%) | ND (^ <4%) | ND (^ <4%) | ND (^ <4%) | ND (^ <4%) | ND (^ <4%) | ND (^ <4%) | + (≥4%) |  | > 3 mg/kg | ND (^ <4%) | ND (^ <4%) | 
CNC1COc2csc(C(F)(F)F)c2C1 (single isomer, unassigned) [Compound 259, N-methyl-5-(trifluoromethyl)-3,4-dihydro-2H-thieno[3,4-b]pyran-3-amine hydrochloride] | ND (^ <4%) | ND (^ <4%) | ND (^ <4%) | ND (^ <4%) | ND (^ <4%) | ND (^ <4%) | ND (^ <4%) | ND (^ <4%) | ++ (≥24%) | >3 mpk |  | ND (^ <4%) | ND (^ <4%) | 
CNC1(C)CCc2c(C(F)(F)F)csc2C1.Cl (single isomer, unassigned) [Compound 261, N, 6-dimethyl-3-(trifluoromethyl)-5,7-dihydro-4H-benzothiophen-6-amine hydrochloride] |  | ND (^ <4%) | ND (^ <4%) | ND (^ <4%) | ND (^ <4%) | ND (^ <4%) | ND (^ <4%) | ND (^ <4%) | + (≥4%) |  | 3 mg/kg | ND (^ <4%) | ND (^ <4%) | AD (hydrochloride, 3 mg/kg): +++ (≥49%)
CNC1(C)CCc2c(C(F)(F)F)csc2C1.Cl (single isomer, unassigned) [Compound 262, N, 6-dimethyl-3-(trifluoromethyl)-5,7-dihydro-4H-benzothiophen-6-amine hydrochloride] |  | ND (^ <4%) | ND (^ <4%) | ND (^ <4%) | ND (^ <4%) | ND (^ <4%) | ND (^ <4%) | ND (^ <4%) | ND (^ <4%) |  |  | ND (^ <4%) | ND (^ <4%) | AD (hydrochloride, 3 mg/kg): ++ (≥24%); MED (hydrochloride): >3 mpk
CNC1CCc2scc(C3CCC3)c2C1 (single isomer, unassigned) [Compound 267, 3-cyclobutyl-N-methyl-4,5,6,7-tetrahydrobenzothiophen-5-amine hydrochloride] | ND (^ <4%) | ND (^ <4%) | ND (^ <4%) | ND (^ <4%) | ND (^ <4%) | ND (^ <4%) | ND (^ <4%) | ND (^ <4%) | + (≥4%) |  | > 3 mg/kg | ND (^ <4%) | ND (^ <4%) | 
CNC1CCc2scc(C3CCC3)c2C1 (single isomer, unassigned) [Compound 268, 3-cyclobutyl-N-methyl-4,5,6,7-tetrahydrobenzothiophen-5-amine hydrochloride] | ND (^ <4%) | ND (^ <4%) | ND (^ <4%) | ND (^ <4%) | ND (^ <4%) | ND (^ <4%) | ND (^ <4%) | ND (^ <4%) | ND (^ <4%) | >3 mpk |  | ND (^ <4%) | ND (^ <4%) | 
CC1(N2CCCC2)CCc2ccsc2C1 (single isomer, unassigned) [Compound 275, 1-(6-methyl-4,5,6,7-tetrahydrobenzo[b]thiophen-6-yl)pyrrolidine] | ND (^ <4%) | ND (^ <4%) | ND (^ <4%) | ND (^ <4%) | ND (^ <4%) | ND (^ <4%) |  | ND (^ <4%) |  |  | 3 mg/kg |  | ND (^ <4%) | UK: ND (^ <4%); AX (3 mg/kg): ND (^ <4%); PS (3 mg/kg): ++++ (≥74%)
CC1(N2CCCC2)CCc2ccsc2C1 (single isomer, unassigned) [Compound 276, 1-(6-methyl-4,5,6,7-tetrahydrobenzo[b]thiophen-6-yl)pyrrolidine] | ND (^ <4%) | ND (^ <4%) | ND (^ <4%) | ND (^ <4%) | ND (^ <4%) | ND (^ <4%) |  | ND (^ <4%) |  | 3 mpk |  |  | ND (^ <4%) | UK: ND (^ <4%); AX (3 mg/kg): ++++ (≥74%); PS (3 mg/kg): ND (^ <4%)
NC1CCc2scc(C3CC3)c2C1 (single isomer, unassigned) [Compound 277, 3-cyclopropyl-4,5,6,7-tetrahydrobenzothiophen-5-amine hydrochloride] | ND (^ <4%) | ND (^ <4%) | ND (^ <4%) | ND (^ <4%) | ND (^ <4%) | ND (^ <4%) | ND (^ <4%) | ND (^ <4%) |  |  | > 3 mg/kg | ND (^ <4%) | ND (^ <4%) | UK: + (≥4%)
